Measured values taken from US5583147A, “Amides for the treatment of atherosclerosis” (The Dupont Merck Pharmaceutical Company, priority 1994, dated 1996).

What follows are compounds tested against T1, Acyl-CoA: Cholesterol Acyltransferase (ACAT) (Rattus norvegicus, UniProt Q7TQM4) (assay: Inhibition of Acyl-CoA: Cholesterol Acyltransferase (ACAT) in Hepatic Microsomes (In Vitro Assay)). Settings: 75 μM 14C-oleoyl-CoA, pH 7.4, 37° C., 10 min, read-out: ACAT Inhibitory Activity (In Vitro) (IC50).
T1 construct: centrifuged at 105,000×g for 1 hour to pellet the microsomes; from tissue; host or cells: liver microsomes of male Sprague Dawley rats
T1 sequence (Q7TQM4 1-524): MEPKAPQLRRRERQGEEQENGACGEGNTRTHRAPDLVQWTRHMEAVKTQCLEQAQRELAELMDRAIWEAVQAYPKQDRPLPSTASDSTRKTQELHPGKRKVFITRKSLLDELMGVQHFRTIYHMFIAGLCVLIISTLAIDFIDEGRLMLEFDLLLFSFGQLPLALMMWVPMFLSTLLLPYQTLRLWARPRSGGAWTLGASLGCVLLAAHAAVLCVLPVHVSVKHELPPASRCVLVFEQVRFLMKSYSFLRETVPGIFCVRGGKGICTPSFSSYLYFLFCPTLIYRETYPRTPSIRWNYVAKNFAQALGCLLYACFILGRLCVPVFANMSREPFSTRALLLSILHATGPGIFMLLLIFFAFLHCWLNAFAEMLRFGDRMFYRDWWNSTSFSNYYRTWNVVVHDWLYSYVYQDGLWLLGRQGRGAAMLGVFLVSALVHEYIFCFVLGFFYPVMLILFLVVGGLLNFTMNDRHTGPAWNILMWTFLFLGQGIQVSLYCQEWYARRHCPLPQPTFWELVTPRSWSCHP
Format: biochemical, rat (male Sprague Dawley)
Method: A. Assay of the Inhibition of Acyl-CoA: Cholesterol Acyltransferase (ACAT) in Hepatic Microsomes (In Vitro Assay)
The ability of the compounds to inhibit ACAT, the enzyme responsible for the intracellular synthesis of cholesteryl esters, was tested as follows. Male Sprague Dawley rats weighing 150-300 g, were fed rat chow ad libitum. The animals were fasted for twenty-four hours prior to being euthanized by CO2. The livers were perfused in situ with 50 ml of cold 0.25 sucrose, excised, and homogenized in three volumes of 0.1M phosphate buffer, pH 7.4, that contained 0.5 mM EDTA (ethylenediamine-tetraacetic acid), 1.0 mM glutathione, 0.25M sucrose and […] leupeptin. Microsomes were obtained by differential centrifugation; the supernatant from an initial spin at 15,000×g for 15 minutes was centrifuged at 105,000×g for 1 hour to pellet the microsomes. The microsomes were suspended in homogenization buffer, reisolated by centrifugation, and stored at -70° C. Microsomes were used within one month of preparation.
The control assay in a final volume of 200 μl consisted of 200 μg of microsomal protein, 75 μM ^14 C-oleoyl-CoA (10,000 dpm/nmol) in 0.1M phosphate, pH 7.4, that contained 1 mM glutathione. Compounds were added in 5 μl of DMSO (dimethyl sulfoxide) and additional controls were run with DMSO only. All components, except the oleoyl-CoA, were preincubated for 15 min. at 37° C. prior to the initiation of the reaction by the addition of oleoyl-CoA. The assay was terminated after 10 min by the addition of 4 ml of chloroform:methanol (2:1, v/v). 20,000 dpm of ^3 H-cholesteryl oleate and 10 μg of unlabeled cholesteryl oleate and oleic acid were added as an internal standard and carriers, respectively. After allowing 10 min. for lipid extraction, the samples were centrifuged at 1,000×g for 10 min to separate the solvent layers. The chloroform layer containing the neutral lipids was spotted onto a Baker SI250-Pa silica gel TLC plate and the plate developed using a hexane:diethyl ether:acetic acid (170:30:1) v/v/v) mobile phase. The lipids were visualized by their interaction with iodine vapor and the cholesteryl ester spot was scraped into a scintillation vial and counted. The specific activity of ACAT in the control incubation averaged 260 pmol/min/mg microsomal protein. The data obtained are expressed as the concentration at which ACAT activity is inhibited by 50% (IC50).

| IC50 [nM] | SMILES |
| --- | --- |
| < 1000 | CSc1cc(C)nc(SC)c1NC(=O)C(SCc1ccccc1)c1ccc(-c2ccccc2)cc1 (stereo not drawn) [Example 463, N-[2,4-bis(methylthio)-6-methyl-3-pyridyl]-α-benzylthio-4-biphenylacetamide] |
| < 1000 | COc1ccc(SC(C(=O)Nc2c(SC)cc(C)nc2SC)c2ccc(Cl)cc2)cc1 (stereo not drawn) [Example 103, N-[2,4-bis(methylthio)-6-methyl-3-pyridyl]-α-(4-methoxy-phenylthio)-4-chloro-phenylacetamide] |
| < 1000 | COc1ccc(SC(C(=O)Nc2c(SC)cc(C)nc2SC)c2ccc(OC)cc2)cc1 (stereo not drawn) [Example 137, N-[2,4-bis(methylthio)-6-methyl-3-pyridyl]-α-(4-methoxy-phenylthio)-4-methoxy-phenylacetamide] |
| < 1000 | CSc1cc(C)nc(SC)c1NC(=O)C(SCc1ccc(F)cc1)c1ccc(-c2ccccc2)cc1 (stereo not drawn) [Example 464, N-[2,4-bis(methylthio)-6-methyl-3-pyridyl]-α-(4-fluoro-benzylthio)-4-biphenylacetamide] |
| < 1000 | COc1ccc(CSC(C(=O)Nc2c(SC)cc(C)nc2SC)c2ccc(Cl)c(Cl)c2)cc1 (stereo not drawn) [Example 182, N-[2,4-bis(methylthio)-6-methyl-3-pyridyl]-α-(4-methoxy-benzylthio)-3,4-dichloro-phenylacetamide] |
| < 1000 | CSc1cc(C)nc(SC)c1NC(=O)C(Sc1ccc(F)cc1)c1ccc(Cl)cc1 (stereo not drawn) [Example 104, N-[2,4-bis(methylthio)-6-methyl-3-pyridyl]-α-(4-fluoro-phenylthio)-4-chloro-phenylacetamide] |
| < 1000 | CCCCCCSC(C(=O)Nc1c(SC)cc(C)nc1SC)c1ccc(Cl)c(Cl)c1 (stereo not drawn) [Example 176, N-[2,4-bis(methylthio)-6-methyl-3-pyridyl]-α-hexylthio-3,4-dichloro-phenylacetamide] |
| < 1000 | CSc1cc(C)nc(SC)c1NC(=O)C(SCc1ccccc1)c1cccc(Oc2ccccc2)c1 (stereo not drawn) [Example 321, N-[2,4-bis(methylthio)-6-methyl-3-pyridyl]-α-benzylthio-3-phenoxy-phenylacetamide] |
| < 1000 | CSc1cc(C)nc(SC)c1NC(=O)C(SCc1ccccc1)c1ccc(Oc2ccccc2)cc1 (stereo not drawn) [Example 292, N-[2,4-bis(methylthio)-6-methyl-3-pyridyl]-α-benzylthio-4-phenoxy-phenylacetamide] |
| < 1000 | CC(C)c1cccc(C(C)C)c1NC(=O)C(SCc1ccccc1)c1ccccc1 (single isomer, unassigned) [Example 48, N-(2,6-diisopropyl-phenyl)-D-(-)-α-benzylthio-phenylacetamide] |
| < 1000 | COc1ccc(SC(C(=O)Nc2c(SC)cc(C)nc2SC)c2ccc(C(F)(F)F)cc2)cc1 (stereo not drawn) [Example 394, N-[2,4-bis(methylthio)-6-methyl-3-pyridyl]-α-(4-methoxy-phenylthio)-4-trifluoromethyl-phenylacetamide] |
| < 1000 | CCCCCCSC(C(=O)Nc1c(SC)cc(C)nc1SC)c1ccc2c(c1)OCO2 (stereo not drawn) [Example 515, N-[2,4-bis(methylthio)-6-methyl-3-pyridyl]-α-hexylthio-3,4-methylenedioxyphenylacetamide] |
| < 1000 | CSc1cc(C)nc(SC)c1NC(=O)C(SCc1ccccc1)c1ccc(C(F)(F)F)cc1 (stereo not drawn) [Example 379, N-[2,4-bis(methylthio)-6-methyl-3-pyridyl]-α-benzylthio-4-trifluoromethyl-phenylacetamide] |
| < 1000 | COc1ccc(C(SCc2ccccc2)C(=O)Nc2c(SC)cc(C)nc2SC)cc1OC (stereo not drawn) [Example 236, N-[2,4-bis(methylthio)-6-methyl-3-pyridyl]-α-benzylthio-3,4-dimethoxy-phenylacetamide] |
| < 1000 | CCCCCCSC(C(=O)Nc1c(SC)cc(C)nc1SC)c1ccccc1 (single isomer, unassigned) [Example 41, N-[2,4-bis(methylthio)-6-methyl-3-pyridyl]-L-(+)-α-hexylthio-phenylacetamide] |
| < 1000 | COc1ccc(SC(C(=O)Nc2c(SC)cc(C)nc2SC)c2ccc(F)cc2)cc1 (stereo not drawn) [Example 167, N-[2,4-bis(methylthio)-6-methyl-3-pyridyl]-α-(4-methoxy-phenylthio)-4-fluoro-phenylacetamide] |
| < 1000 | CCCCCCSC(C(=O)Nc1c(SC)cc(C)nc1SC)c1cccc(Oc2ccc(Br)cc2)c1 (stereo not drawn) [Example 317, N-[2,4-bis(methylthio)-6-methyl-3-pyridyl]-α-hexylthio-3-(4'-bromophenoxy)-phenylacetamide] |
| < 1000 | CCCCCCSC(C(=O)Nc1c(SC)cc(C)nc1SC)c1ccc(F)cc1 (stereo not drawn) [Example 148, N-[2,4-bis(methylthio)-6-methyl-3-pyridyl]-α-hexylthio-4-fluoro-phenylacetamide] |
| < 1000 | CSc1cc(C)nc(SC)c1NC(=O)C(SCc1ccc(F)cc1)c1ccc(Cl)cc1 (stereo not drawn) [Example 91, N-[2,4-bis(methylthio)-6-methyl-3-pyridyl]-α-(4-fluoro-benzylthio)-4-chloro-phenylacetamide] |
| < 1000 | CCCCCCSC(C(=O)Nc1c(SC)cc(C)nc1SC)c1ccc(OC)c(OC)c1 (stereo not drawn) [Example 232, N-[2,4-bis(methylthio)-6-methyl-3-pyridyl]-α-hexylthio-3,4-dimethoxy-phenylacetamide] |
| < 1000 | CSc1cc(C)nc(SC)c1NC(=O)C(SCc1ccccc1)c1cccc(Oc2ccc(Br)cc2)c1 (stereo not drawn) [Example 322, N-[2,4-bis(methylthio)-6-methyl-3-pyridyl]-α-benzylthio-3-(4'-bromophenoxy)-phenylacetamide] |
| < 1000 | CCCCCCSC(C(=O)Nc1c(C(C)C)cccc1C(C)C)c1ccccc1 (single isomer, unassigned) [Example 42, N-(2,6-diisopropyl-phenyl)-D-(-)-α-hexylthio-phenylacetamide] |
| < 1000 | CSc1cc(C)nc(SC)c1NC(=O)C(SCc1ccccc1)c1ccccc1 (single isomer, unassigned) [Example 46, N-[2,4-bis(methylthio)-6-methyl-3-pyridyl]-D-(-)-α-benzylthio-phenylacetamide] |
| < 1000 | CSc1cc(C)nc(SC)c1NC(=O)C(SCc1cccnc1)c1ccc(-c2ccccc2)cc1 (stereo not drawn) [Example 484, N-[2,4-bis(methylthio)-6-methyl-3-pyridyl]-α-(3-pyridyl-methylthio)-4-biphenylacetamide] |
| < 1000 | CSc1cc(C)nc(SC)c1NC(=O)C(Sc1ccc(F)cc1)c1ccc(F)cc1 (stereo not drawn) [Example 166, N-[2,4-bis(methylthio)-6-methyl-3-pyridyl]-α-(4-fluoro-phenylthio)-4-fluoro-phenylacetamide] |
| < 1000 | CCCCCCSC(C(=O)Nc1c(SC)cc(C)nc1SC)c1ccc(C(C)C)cc1 (stereo not drawn) [Example 403, N-[2,4-bis(methylthio)-6-methyl-3-pyridyl]-α-hexylthio-4-isopropylphenylacetamide] |
| < 1000 | CCSC(C(=O)Nc1c(SC)cc(C)nc1SC)c1ccccc1 (single isomer, unassigned) [Example 50, N-[2,4-bis(methylthio)-6-methyl-3-pyridyl]-L-(+)-α-ethylthio-phenylacetamide] |
| < 1000 | CCCCCCSC(C(=O)Nc1c(SC)cc(C)nc1SC)c1ccc(C(F)(F)F)cc1 (stereo not drawn) [Example 375, N-[2,4-bis(methylthio)-6-methyl-3-pyridyl]-α-hexylthio-4-trifluoromethyl-phenylacetamide] |

| SMILES | IC50 [nM] |
| --- | --- |
| CCCCOc1ccc(C(SCc2ccccc2)C(=O)Nc2c(SC)cc(C)nc2SC)cc1 (stereo not drawn) [Example 264, N-[2,4-bis(methylthio)-6-methyl-3-pyridyl]-α-benzylthio-4-butoxy-phenylacetamide] | < 1000 |
